The values that follow come from patent US12540142B2, “Method for evaluating quality of (3S)-3-(4-(3-(1,4-dioxaspiro[4,5]dec-7-en-8-yl)benzyloxy)phenyl)hex-4-inoic acid” (Hyundai Pharm Co., Ltd., priority 2020, dated 2026).

Data set [1] in a line: Related substance analysis by HPLC after refrigerated storage for about 2 years. The class given is physicochemical. Particulars: substance stored under refrigerated conditions (5° C.±3° C.) for about 2 years; for Area %: HPLC 220 nm. Here is the method: About 35 mg of a (3S)-3-(4-(3-(1,4-dioxaspiro[4,5]dec-7-en yl)benzyloxy)phenyl)hex-4-inoic acid-containing substance stored under refrigerated conditions (5° C.±3° C.) for about 2 years was accurately weighed and put into a 50-ml volume flask, a diluent was added to the flask at about ⅔ of the volume, and the resulting mixture was mixed well. Thereafter, a related substance was analyzed using HPLC (Agilent Technologies 1200 Series).
<HPLC conditions> Operation Parameters
Column: Kinetex EVO C18, 5 um, 4.6×250 mm
Column temperature: 25° C.
Sample concentration: 0.7 mg/ml
Mobile Phase A: 0.01 M K2HPO4 (pH 7)

Data set [2] can be described thus: Stress sample with oxidant (3% hydrogen peroxide), related substance analysis by HPLC. The class given is physicochemical. As to conditions: 3% hydrogen peroxide solution, room temperature, 24 hours; HPLC as in Example 1. Here is the method: A stress sample stressed using an oxidant was prepared to confirm the production of the related substance. About 35 mg of a (3S)-3-(4-(3-(1,4-dioxaspiro[4,5]dec-7-en-8-yl)benzyloxy)phenyl)hex-4-inoic acid-containing substance stored under refrigerated conditions (5° C.±3° C.) for about 2 years was accurately weighed and put into a 50-ml volume flask. A diluent was added to the flask at about ⅔ of the volume, and the resulting mixture was mixed well. After 2 ml of a 3% hydrogen peroxide solution was added thereto, the resulting mixture was mixed well and marked with a diluent. The stress sample was left to stand at room temperature, and 24 hours later, the related substance was analyzed using HPLC (Agilent Technologies 1200 Series). The related substance was analyzed under the same conditions as in Example 1. As a result, it was confirmed that the related substance was produced from the stress sample (RRT 0.93, Area 3.83%). A comparison of the HPLC data of both samples using the sample of Example 1 as a control is shown in FIG. 4 (blue: control, green: stress sample). It was confirmed that the production of the related substance of Chemical Formula 2 in the stress sample was increased compared to the control.

The conditions of data set [3]: research project title; no test described; cited from earlier work.
The conditions of data set [4]: research project title; no test described; cited from earlier work. The source holds these as a separate data set.

As for `CC#C[C@@H](CC(=O)O)c1ccc(OCc2cccc(C3=CCC4(CC3)OCCO4)c2)cc1` [Chemical Formula 1, (3S)-3-(4-(3-(1,4-dioxaspiro[4,5]dec-7-en-8-yl)benzyloxy)phenyl)hex-4-inoic acid], in data set [1], the Area % is given as 98.9289%.
In data set [1], `CC#C[C@@H](CC(=O)O)c1ccc(OCc2cccc(C34CCC5(CC3O4)OCCO5)c2)cc1` (stereo partly drawn) [Chemical Formula 2, (3S)-3-(4-((3-(7-oxaspiro[bicyclo[4.1.0]heptane-3,2′-[1,3]dioxolan]-6-yl)benzyl)oxy)phenyl)hex-4-inoic acid] gave an Area % of 0.2566%. For the same molecule, the “Area % of related substance (RRT: 0.93)” value in data set [1] (HPLC) was 0.26%. In addition, the “Area of related substance produced (RRT 0.93)” value in data set [2] worked out at 3.83%.
In general, EC50 refers to the midpoint of the concentration-response curve. Consider `CC#C[C@@H](CC(=O)O)c1ccc(OCc2cccc(C3=CCC4(CC3)OCCO4)c2)cc1` [HD-6277], for which the “hypoglycemic effect (HbA1c)” value in data set [3] was > 1%. The 50% effective concentration (EC50) in data set [4] was < 1 nM.
